pIC50: −log10 of the molar value. Where a name gives a salt, the structure may show the parent alone.
target: T1, HCV polymerase (Hepatitis C virus genotype 1b, UniProt P26663); experiment: biochemical; set-up: species or system HCV BK strain
T1 construct: a region encoding NS5B (J Virol 1991 March, 65(3), 1105-13, 544 amino acids after deletion of 47 amino acids on the C-terminal); 6xHis (C); made in house; host or cells: Escherichia coli
Method in brief: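 Recombinant HCV BK-strain NS5B (C-terminal 47 aa deleted, His6-tagged, E. coli), 0.5 μg/ml, run with 5 μg/ml in vitro-transcribed RNA template (polyU/3′X), ATP/GTP/CTP 50 μM, UTP 2 μM plus [3H]UTP, pH 7.5, 25° C, 90 min. TCA-precipitated RNA counted by scintillation; IC50 from activity with vs without compound.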

T1 sequence (P26663 2420-2963): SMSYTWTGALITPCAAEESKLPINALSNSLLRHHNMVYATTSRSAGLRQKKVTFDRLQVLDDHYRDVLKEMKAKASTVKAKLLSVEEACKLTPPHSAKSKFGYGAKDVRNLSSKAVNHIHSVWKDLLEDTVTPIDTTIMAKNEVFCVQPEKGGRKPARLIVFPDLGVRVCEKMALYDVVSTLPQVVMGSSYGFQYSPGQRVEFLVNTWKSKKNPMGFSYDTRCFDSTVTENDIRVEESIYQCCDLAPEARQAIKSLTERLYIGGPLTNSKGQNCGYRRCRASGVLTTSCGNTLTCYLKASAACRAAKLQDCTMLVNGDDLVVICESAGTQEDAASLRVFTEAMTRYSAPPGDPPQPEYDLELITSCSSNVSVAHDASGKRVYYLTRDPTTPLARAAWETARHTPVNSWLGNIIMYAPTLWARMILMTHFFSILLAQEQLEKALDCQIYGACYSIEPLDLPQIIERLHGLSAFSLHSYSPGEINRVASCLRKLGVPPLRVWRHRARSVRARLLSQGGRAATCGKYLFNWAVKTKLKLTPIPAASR

Compound	pIC50
CCOc1ccc2c(c1)N(C)CCn1c-2c(C2CCCCC2)c2ccc(C(=O)NC(C)(C)C(=O)Nc3ccc(/C=C/C(=O)O)cc3)cc21 [Example 1-615, (E)-3-(4-{2-[(13-cyclohexyl-3-ethoxy-5-methyl-6,7-dihydro-5H-benzo[5,6][1,4]diazepino[7,1-a]indole-10-carbonyl)amino]-2-methylpropionylamino}phenyl)acrylic acid]	> 7.00
CCOc1ccc2c(c1)N(C)CCn1c-2c(C2CCCCC2)c2ccc(C(=O)NC3(C(=O)Nc4cccc(/C=C/C(=O)O)c4)CCC3)cc21 [Example 1-616, (E)-3-[3-({1-[(13-cyclohexyl-3-ethoxy-5-methyl-6,7-dihydro-5H-benzo[5,6][1,4]diazepino[7,1-a]indole-10-carbonyl)amino]cyclobutanecarbonyl}amino)phenyl]acrylic acid]	> 7.00
CCOc1ccc2c(c1)N(C)CCn1c-2c(C2CCCCC2)c2ccc(C(=O)NC3(C(=O)Nc4ccc(/C=C/C(=O)O)cc4OC)CCC3)cc21 [Example 1-617, (E)-3-[4-({1-[(13-cyclohexyl-3-ethoxy-5-methyl-6,7-dihydro-5H-benzo[5,6][1,4]diazepino[7,1-a]indole-10-carbonyl)amino]cyclobutanecarbonyl}amino)-3-methoxyphenyl]acrylic acid]	> 7.00
CCOc1ccc2c(c1)N(C)CCn1c-2c(C2CCCCC2)c2ccc(C(=O)NC3(C(=O)Nc4ccc(Cl)c(/C=C/C(=O)O)c4)CCC3)cc21 [Example 1-618, (E)-3-[2-chloro-5-({1-[(13-cyclohexyl-3-ethoxy-5-methyl-6,7-dihydro-5H-benzo[5,6][1,4]diazepino[7,1-a]indole-10-carbonyl)amino]cyclobutanecarbonyl}amino)phenyl]acrylic acid]	> 7.00
CCOc1ccc2c(c1)N(C)CCn1c-2c(C2CCCCC2)c2ccc(C(=O)NC3(C(=O)Nc4ccc(OC)c(/C=C/C(=O)O)c4)CCC3)cc21 [Example 1-619, (E)-3-[5-({1-[(13-cyclohexyl-3-ethoxy-5-methyl-6,7-dihydro-5H-benzo[5,6][1,4]diazepino[7,1-a]indole-10-carbonyl)amino]cyclobutanecarbonyl}amino)-2-methoxyphenyl]acrylic acid]	> 7.00
CCOc1ccc2c(c1)N(C)CCn1c-2c(C2CCCCC2)c2ccc(C(=O)NC3(C(=O)Nc4ccc(C)c(/C=C/C(=O)O)c4)CCC3)cc21 [Example 1-620, (E)-3-[5-({1-[(13-cyclohexyl-3-ethoxy-5-methyl-6,7-dihydro-5H-benzo[5,6][1,4]diazepino[7,1-a]indole-10-carbonyl)amino]cyclobutanecarbonyl}amino)-2-methylphenyl]acrylic acid]	> 7.00
CCOc1ccc2c(c1)N(C)CCn1c-2c(C2CCCCC2)c2ccc(C(=O)NC3(C(=O)Nc4ccc(/C=C/C(=O)O)c(C)c4)CCC3)cc21 [Example 1-621, (E)-3-[4-({1-[(13-cyclohexyl-3-ethoxy-5-methyl-6,7-dihydro-5H-benzo[5,6][1,4]diazepino[7,1-a]indole-10-carbonyl)amino]cyclobutanecarbonyl}amino)-2-methylphenyl]acrylic acid]	> 7.00
CCOc1ccc2c(c1)N(C)CCn1c-2c(C2CCCCC2)c2ccc(C(=O)NC3(C(=O)Nc4ccc(/C=C/C(=O)O)c(OC)c4)CCC3)cc21 [Example 1-622, (E)-3-[4-({1-[(13-cyclohexyl-3-ethoxy-5-methyl-6,7-dihydro-5H-benzo[5,6][1,4]diazepino[7,1-a]indole-10-carbonyl)amino]cyclobutanecarbonyl}amino)-2-methoxyphenyl]acrylic acid]	> 7.00
CCOc1ccc2c(c1)N(C)CCn1c-2c(C2CCCCC2)c2ccc(C(=O)NC3(C(=O)Nc4ccc(C=CC(=O)O)c(Cl)c4)CCC3)cc21 [Example 1-623, (E)-3-[2-chloro-4-({1-[(13-cyclohexyl-3-ethoxy-5-methyl-6,7-dihydro-5H-benzo[5,6][1,4]diazepino[7,1-a]indole-10-carbonyl)amino]cyclobutanecarbonyl}amino)phenyl]acrylic acid]	> 7.00
O=C(O)c1ccc2c(C3CCCCC3)c3n(c2c1)CCOc1cc(OCc2ccccc2)ccc1-3 [Example 2-3, 3-benzyloxy-12-cyclohexyl-6,7-dihydro-5-oxa-7a-azadibenzo[a,e]azulene-9-carboxylic acid]	> 7.00
COc1ccc2c(c1)OCCn1c-2c(C2CCCCC2)c2ccc(C(=O)O)cc21 [Example 2-4, 12-cyclohexyl-3-methoxy-6,7-dihydro-5-oxa-7a-azadibenzo[a,e]azulene-9-carboxylic acid]	> 7.00
O=C(O)c1ccc2c(C3CCCCC3)c3n(c2c1)CCOc1cc(OCc2cc(N4CCCC4=O)ccc2N2CCOCC2)ccc1-3 [Example 2-5, 12-cyclohexyl-3-[2-(morpholin-4-yl)-5-(2-oxopyrrolidin-1-yl)benzyloxy]-6,7-dihydro-5-oxa-7a-azadibenzo[a,e]azulene-9-carboxylic acid monohydrochloride]	> 7.00
COc1ccc2c(c1)-c1c(C3CCCCC3)c3ccc(C(=O)O)cc3n1CCO2 [Example 2-6, 12-cyclohexyl-2-methoxy-6,7-dihydro-5-oxa-7a-azadibenzo[a,e]azulene-9-carboxylic acid]	6.00 to 7.00
O=C(O)c1ccc2c(C3CCCCC3)c3n(c2c1)CCOc1cc(OCc2ccc(N4CCCC4=O)cc2N2CCOCC2)ccc1-3 [Example 2-9, 12-cyclohexyl-3-[2-(morpholin-4-yl)-4-(2-oxopyrrolidin-1-yl)benzyloxy]-6,7-dihydro-5-oxa-7a-azadibenzo[a,e]azulene-9-carboxylic acid]	> 7.00
CC(C)(C)OC(=O)N1CCC(Oc2ccc3c(c2)OCCn2c-3c(C3CCCCC3)c3ccc(C(=O)O)cc32)CC1 [Example 2-10, 3-(1-tert-butoxycarbonylpiperidin-4-yloxy)-12-cyclohexyl-6,7-dihydro-5-oxa-7a-azadibenzo[a,e]azulene-9-carboxylic acid]	> 7.00
CC(C)(C)OC(=O)N1CCCC(Oc2ccc3c(c2)OCCn2c-3c(C3CCCCC3)c3ccc(C(=O)O)cc32)C1 (stereo not shown) [Example 2-11, 3-(1-tert-butoxycarbonylpiperidin-3-yloxy)-12-cyclohexyl-6,7-dihydro-5-oxa-7a-azadibenzo[a,e]azulene-9-carboxylic acid]	> 7.00
CS(=O)(=O)c1ccc(N2CCOCC2)c(COc2ccc3c(c2)OCCn2c-3c(C3CCCCC3)c3ccc(C(=O)O)cc32)c1 [Example 2-12, 12-cyclohexyl-3-[5-methanesulfonyl-2-(morpholin-4-yl)benzyloxy]-6,7-dihydro-5-oxa-7a-azadibenzo[a,e]azulene-9-carboxylic acid monohydrochloride]	> 7.00
CS(=O)(=O)N1CCN(c2ccc(N3CCCC3=O)cc2COc2ccc3c(c2)OCCn2c-3c(C3CCCCC3)c3ccc(C(=O)O)cc32)CC1 [Example 2-13, 12-cyclohexyl-3-[2-(4-methanesulfonylpiperazin-1-yl)-5-(2-oxopyrrolidin-1-yl)benzyloxy]-6,7-dihydro-5-oxa-7a-azadibenzo[a,e]azulene-9-carboxylic acid monohydrochloride]	> 7.00
O=C(O)c1ccc2c(C3CCCCC3)c3n(c2c1)CCOc1cc(OCc2ccccc2N2CCOCC2)ccc1-3 [Example 2-14, 12-cyclohexyl-3-[2-(morpholin-4-yl)benzyloxy]-6,7-dihydro-5-oxa-7a-azadibenzo[a,e]azulene-9-carboxylic acid monohydrochloride]	> 7.00
CC(=O)Nc1ccc(N2CCOCC2)c(COc2ccc3c(c2)OCCn2c-3c(C3CCCCC3)c3ccc(C(=O)O)cc32)c1 [Example 2-15, 3-[5-acetylamino-2-(morpholin-4-yl)benzyloxy]-12-cyclohexyl-6,7-dihydro-5-oxa-7a-azadibenzo[a,e]azulene-9-carboxylic acid monohydrochloride]	> 7.00
CN(C)CC(=O)Nc1ccc(N2CCOCC2)c(COc2ccc3c(c2)OCCn2c-3c(C3CCCCC3)c3ccc(C(=O)O)cc32)c1 [Example 2-16, 12-cyclohexyl-3-[5-(2-dimethylaminoacetylamino)-2-(morpholin-4-yl)benzyloxy]-6,7-dihydro-5-oxa-7a-azadibenzo[a,e]azulene-9-carboxylic acid dihydrochloride]	> 7.00
CS(=O)(=O)Nc1ccc(N2CCOCC2)c(COc2ccc3c(c2)OCCn2c-3c(C3CCCCC3)c3ccc(C(=O)O)cc32)c1 [Example 2-17, 12-cyclohexyl-3-[5-methanesulfonylamino-2-(morpholin-4-yl)benzyloxy]-6,7-dihydro-5-oxa-7a-azadibenzo[a,e]azulene-9-carboxylic acid monohydrochloride]	> 7.00
CC(=O)N(C)c1ccc(N2CCOCC2)c(COc2ccc3c(c2)OCCn2c-3c(C3CCCCC3)c3ccc(C(=O)O)cc32)c1 [Example 2-18, 3-[5-(N-acetyl-N-methylamino)-2-(morpholin-4-yl)benzyloxy]-12-cyclohexyl-6,7-dihydro-5-oxa-7a-azadibenzo[a,e]azulene-9-carboxylic acid monohydrochloride]	> 7.00
CN(c1ccc(N2CCOCC2)c(COc2ccc3c(c2)OCCn2c-3c(C3CCCCC3)c3ccc(C(=O)O)cc32)c1)S(C)(=O)=O [Example 2-19, 12-cyclohexyl-3-[5-(N-methanesulfonyl-N-methylamino)-2-(morpholin-4-yl)benzyloxy]-6,7-dihydro-5-oxa-7a-azadibenzo[a,e]azulene-9-carboxylic acid monohydrochloride]	> 7.00
O=C(O)c1ccc2c(C3CCCCC3)c3n(c2c1)CCOc1cc(Oc2ccccc2)ccc1-3 [Example 2-20, 12-cyclohexyl-3-phenoxy-6,7-dihydro-5-oxa-7a-azadibenzo[a,e]azulene-9-carboxylic acid]	> 7.00

— US20070049593A1 (priority 2004, published 2007)
